Series [1] concerns women with severe chronic PTSD. The series is described as follows: Other medications of the Example 1 case patients (history). The class given is in vivo, human. The method, then:
Case 2. patient two, a person with chronic severe PTSD (DSM-IV) associated with a history of severe childhood physical and sexual abuse, had remained highly symptomatic despite undergoing one and a half years of individual and group CBT and receiving paroxetine up to 30 mg daily, from other practitioners, for more than 4 years. […] They wished to be tapered off paroxetine because they had gained 40 lb, and after becoming obese, they also became hypertensive. Ms. […] Although their paroxetine dosage was tapered to 5 mg every other day, and lamotrigine 100 mg and topiramate 75 mg were administered daily, they remained highly symptomatic.
Case 4. patient one was in psychiatric treatment for over 25 years, including a long course of psychoanalysis and 2 years of CBT. They had been treated with adequate trials of 2 tricyclic antidepressants, 3 SSRIs, venlafaxine, 2 monoamine oxidase inhibitors, 3 anticonvulsants, many typical and atypical antipsychotics, lithium, bupropion, trazodone, and nefazodone.
[…] symptoms persisted in spite of psychotherapy for more than 15 years and numerous trials on medications.

The test system of series [2] is midlife major and minor depression or dysthymia. Conditions: cited from earlier work.
Series [3] relates to treatment-resistant patients. Description: Other treatments of the Example 3 patients (history). Conditions: for response to other treatment: Example 3 patients 2, 3, 5, 6, 7, before 7-keto DHEA. From the text:
Patient 2 A married person was anxious all their life, hypertensive, fragile, had 4 years of depression due to stress and received 12 years of psychoanalysis.

Series [4] addresses T1, [^3H]dexamethasone-activated glucocorticoid receptor (Homo sapiens, UniProt P04150).
T1 construct: glucocorticoid receptor in brain cells; host or cells: brain cells
T1 sequence (P04150 1-777): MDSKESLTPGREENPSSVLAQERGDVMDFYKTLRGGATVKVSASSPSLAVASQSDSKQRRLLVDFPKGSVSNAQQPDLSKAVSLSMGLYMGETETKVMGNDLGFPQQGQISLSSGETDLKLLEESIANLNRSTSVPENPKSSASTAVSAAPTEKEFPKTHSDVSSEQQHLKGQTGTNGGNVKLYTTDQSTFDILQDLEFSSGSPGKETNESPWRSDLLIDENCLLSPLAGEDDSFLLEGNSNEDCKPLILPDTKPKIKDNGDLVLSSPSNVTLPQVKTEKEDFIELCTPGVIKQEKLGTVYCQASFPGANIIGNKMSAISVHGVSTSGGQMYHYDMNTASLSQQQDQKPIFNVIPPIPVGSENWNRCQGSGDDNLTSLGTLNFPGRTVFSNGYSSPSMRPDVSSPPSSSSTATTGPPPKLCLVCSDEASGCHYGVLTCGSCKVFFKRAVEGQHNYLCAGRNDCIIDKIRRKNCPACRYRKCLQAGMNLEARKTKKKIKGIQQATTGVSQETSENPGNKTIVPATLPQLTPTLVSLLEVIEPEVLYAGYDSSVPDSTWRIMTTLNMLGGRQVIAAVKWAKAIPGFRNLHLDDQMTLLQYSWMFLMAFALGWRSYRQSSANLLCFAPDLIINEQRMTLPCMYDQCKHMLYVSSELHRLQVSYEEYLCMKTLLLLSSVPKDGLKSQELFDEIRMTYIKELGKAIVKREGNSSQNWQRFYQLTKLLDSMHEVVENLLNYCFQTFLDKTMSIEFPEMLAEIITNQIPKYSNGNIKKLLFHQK
Conditions: brain cells; cited from earlier work.

The mark [5] stands for this setting: Case 4, lorazepam 1 mg p.r.n., aripiprazole 2.5 mg daily, pemoline 75 mg daily, phentermine 30 mg daily.

The source of these data is patent US8124598B2 (priority 2006, dated 2012).

SMILES strings stand for the structures. “Also recorded” adds a separate entry of the source.

Consider `CC(C)(N)Cc1ccccc1` [phentermine], for which, in series [1] (setting [5]), the benefit entry is “enough energy to function”. Regarding `CNCCC(Oc1ccc(C(F)(F)F)cc1)c1ccccc1` (centres unmarked) [fluoxetine], in series [1] (human, in vivo), the “adverse effect of failed trial” value is “agitated and irritable”. On to `C[C@]12CC[C@H](O)CC1=CC[C@@H]1[C@@H]2CC[C@]2(C)C(=O)CC[C@@H]12` [DHEA, Dehydroepiandrosterone], for which the induced mania entry in series [2] (case reports) is reported as “induced mania has been reported”. The effectiveness in depression result in series [2] (one open series and 3 placebo-controlled, double-blind, randomized trials, midlife major and minor depression or dysthymia) is reported as “supported the effectiveness”. Regarding `C[C@H](N)Cc1ccccc1` [dextroamphetamine], the adverse effect result in series [1] (Case 4) is “made their anxiety worse”. Turning to `CN(C)CCC=C1c2ccccc2COc2ccccc21` [Doxepin], the “response to other treatment” value in series [3] is given as “partially responded”. Further, in series [3] (human, in vivo), the “tolerability of other treatment” value is on record as “intolerant of the side effects”.

As to `O=C1Nc2ccc(Cl)cc2C(c2ccccc2Cl)=NC1O` (centres unmarked) [lorazepam], the benefit result in series [1] (setting [5]) is “some relief from anxiety, depression, and agitation”. As for `C[C@]12CC[C@H](O)CC1=C[C@H](O)[C@@H]1[C@@H]2CC[C@]2(C)C(=O)CC[C@@H]12` [7 beta-hydroxy DHEA], the “preventing the nuclear uptake of [^3H]dexamethasone-activated glucocorticoid receptor” value in series [4] is “efficient”. As to `C[C@]12CC[C@H](O)CC1=C[C@@H](O)[C@@H]1[C@@H]2CC[C@]2(C)C(=O)CC[C@@H]12` [7 alpha-hydroxy DHEA], in series [4], the “preventing the nuclear uptake of [^3H]dexamethasone-activated glucocorticoid receptor” value is reported as “efficient”. For the compound `CN1CCN2c3ncccc3Cc3ccccc3C2C1` (centres unmarked) [Remeron], in series [3], the “response to other treatment” value was “partially helped”. On to `Nc1nnc(-c2cccc(Cl)c2Cl)c(N)n1` [lamotrigine], for which, in series [3], the “response to other treatment” value is given as “partially improved”. For the compound `O=C1CCc2ccc(OCCCCN3CCN(c4cccc(Cl)c4Cl)CC3)cc2N1` [aripiprazole], the benefit result in series [1] (setting [5]) is “some relief from anxiety, depression, and agitation”. For the same compound, in series [1] (human, in vivo), the weight gain is recorded as 30 lb. Also, the “response to other treatment” value in series [3] was “partially responded”. In the case of `COc1ccc(C(CN(C)C)C2(O)CCCCC2)cc1` (centres unmarked) [venlafaxine], in series [1] (Case 5, sertraline for 6 years), the benefit result is recorded as “slightly helpful”. The adverse effect entry in series [1] (Case 5, venlafaxine at 300 mg daily) was “overly activated”. Moreover, the “response to other treatment” value in series [3] is “partially responded”. In addition, the “tolerability of other treatment” value in series [3] (Example 3 patients 6 and 7) is given as “did not like the side effects”. For `C[S+](CC[C@H](N)C(=O)O)C[C@H]1O[C@@H](n2cnc3c(N)ncnc32)[C@H](O)[C@@H]1O` (some centres unmarked) [SAMe, S-adenosylmethionine], the “response to other treatment” value in series [3] was “partially helped; also recorded: made the Doxepin work better”.

Consider `NC1=NC(=O)C(c2ccccc2)O1` (centres unmarked) [Pemoline], for which the benefit result in series [1] (setting [5]) is on record as “enough energy to function”. As for `COC(=O)C(c1ccccc1)C1CCCCN1` (centres unmarked) [Methylphenidate], the adverse effect result in series [1] (Case 4) is reported as “made their anxiety worse”. Consider `Fc1ccc([C@@H]2CCNC[C@H]2COc2ccc3c(c2)OCO3)cc1` [paroxetine], for which, in series [1] (Case 2, patient's own judgement), the benefit entry is “not helping their chronic severe anxiety and irritability”. `CN[C@H]1CC[C@@H](c2ccc(Cl)c(Cl)c2)c2ccccc21` [sertraline]: in series [1] (Case 5, sertraline for 6 years), the benefit entry is “minimal benefit”. Besides, the “adverse effect of failed trial” value in series [1] (human, in vivo) is “agitated and irritable”. Besides, the “response to other treatment” value in series [3] was “partially improved”.
